Reference: EP4463162B1, “CONNEXIN 43 FOR USE IN TREATING BRCA1/2-MUTATED CANCER” (Fundación Profesor Novoa Santos, priority 2022, dated 2023)

How the values were obtained:
[1] = test system: control empty vector (EV) HCC1937 cells; assay: 48 h olaparib dose-response curve, cell viability; type: cell-based; settings: Homo sapiens, HCC1937, 48 h
[2] = test system: poly(ADP-ribose) (PAR) polymer; assay: Global protein PARylation, western blot and immunofluorescence; type: cell-based, human; settings: 48 and 96 h, western blot
Method: 2 000-10 000 cells were plated on glass coverslips (Thermo Fisher Scientific) previously coated with poly-D-lysine hydrobromide (Sigma-Aldrich) and cultured until they were approximately 80 % confluent. They were washed with PBS, fixed with 4 % paraformaldehyde (PFA, Sigma-Aldrich) in PBS for 15 min at room temperature and rinsed twice with PBS. Next, cells were incubated with 0.1 M glycine (Sigma-Aldrich) in distilled water to quench PFA for 10 min at room temperature, and then their membranes were permeabilized with 0.2 % Triton X-100 (Sigma-Aldrich) in PBS for 10 min at room temperature. After two 5 min PBS washes, potential nonspecific antibody binding sites were blocked with 1 % bovine serum albumin (BSA; Sigma-Aldrich) diluted in PBST (PBS+0.1 % Tween 20; Sigma-Aldrich) for 30 min at room temperature. Cells were incubated overnight at 4 °C in the dark with primary antibody (see references in Table 3) diluted in 1 % BSA in PBST. […]
Protein extracts were mixed with loading buffer, which consisted of 10 % (v/v) β-mercaptoethanol (Sigma-Aldrich), 10 % SDS, 50 % (v/v) glycerol, 200 mM Tris-HCl pH 6.8 and 0.1 % bromophenol blue (Sigma-Aldrich). […] Ponceau staining and western blot images were analysed and their band intensities quantitated with Image J software. […]

O=C(c1cc(Cc2n[nH]c(=O)c3ccccc23)ccc1F)N1CCN(C(=O)C2CC2)CC1 [Olaparib, olaparib]
IC50 [1]: 602 µM
PAR levels ([2]; Cx43_HCC1937, 50/100 µM olaparib): decreased
PAR levels ([2]; EV_HCC1937, 50/100 µM olaparib): rose
